Results on 7 compounds are retold here after patent US20240264150A1, “METHODS FOR ASSIGNING A PHENOTYPIC SIGNATURE FOR DIAGNOSTIC AND THERAPEUTIC APPLICATIONS” (DEUTSCHES ZENTRUM FÜR NEURODEGENERATIVE ERKRANKUNGEN E.V. …, priority 2020, published 2024).

Common to all, as to type: cell-based, human
The test system of experiment [1] is inflammasome activation by LPS+ATP. The experiment in a line: Benchmark experiment, present assay platform (HTRF cytokine release plus image-based multi-parametric readouts), LPS priming and LPS+ATP activation. Conditions: for TNFa-positive cells percentage: LPS and LPS_Activator conditions, vs DMSO; for inflammasome activation / percentage of IL1beta-positive cells / IL1beta release: LPS+ATP (LPS_Activator); for IL1beta release: vs DMSO control. The source says:
(§1) FIG. 24: Added-Value-1. Higher precision and accuracy of the present technology compared to Luminex cytokine assays. We tested the IL1beta- and TNFalpha release performance on the present assay platform (integrated as HTRF assays from cisbio/PerkinElmer into the inventive workflow) (B) in comparison to the Luminex cytokine assay technology (A). […] (2) Due to its higher precision and accuracy, the inventive technology allowed to disclose distinct compound (Cmpd) effects on donor-specific responses which was not achieved by the Luminex technology despite its higher nominal assay ranges as indicated by the upper and lower LoD's (tables on the left in A, B). (3) Despite higher nominal assay ranges of Luminex cytokine tests compared to present technology cytokine release LoD's (dotted lines), donor-specific response ranges were solely resolved by the inventive technology and could not be identified by the Luminex assay. (4) Despite higher nominal assay ranges of Luminex cytokine tests compared to present technology cytokine release LoD's, the inventive technology covered a larger assay window as indicated by the ovals on the TNFa-release box plot y-axes in (A) and (B).
(§2) To benchmark the inventive technology in the context of established state-of-the-art cytokine assays in the field of innate immune response analyses, a product benchmarking experiment was conducted. Towards this end, a 34-plex, off-the-shelf Luminex cytokine assay kit was tested in comparison to the present assay platform which in this embodiment integrates cytokine release data with image-based readout analyses leading to increased knowledge and added scientific value.
(§3) In the benchmarking experiment, innate immune reactions were assessed by classical cytokine release assays, i.e. the Luminex assay technology, and compared to the present platform which allows an in-depth analysis of immune responses by the combination and integration of cytokine release data and image-based multi-parametric readouts. Since the present assay platform represents a functional assay, the following conditions were analyzed, untreated, LPS-priming and priming-activation by LPS+ATP. Furthermore, the effects of selected reference compounds on the innate immune responses were tested, i.e. CRID3/MCC950 (NLRP3 inflammasome inhibitor), P22077 (ubiquitin protease inhibitor), 4SC202/Domatinostat (class 1 HDAC inhibitor), MI-2 (MALT1 inhibitor, NLRP3 inhibitor), A438079 (P2X7 receptor antagonist), VX-765 (CASP1 inhibitor) and Z-VAD-OH-FMK (pan-CASP inhibitor). The selection of the reference compounds was based on compound-specific effects on captured phenotypes obtained by the present technology (Table 3). Captured phenotypes obtained by multi-parametric and image-based readout constitute an added value provided by the present technology.
(In TR-FRET formats the signal depends on donor and acceptor labels being close together.)

The test system is the same in experiment [2]. The experiment in a line: Benchmark experiment, 34-plex Luminex cytokine assay. Conditions: for IL1b release (Luminex): LPS+ATP.
Excerpt: as §1, §2, §3

The subject of experiment [3] is PBMC. The experiment in a line: De-risking of cyclooxygenase (COX)-modulators (pain-killers) in the PBMC test system: image-based and supernatant cytokine readouts. Particulars: for alteration of the collective phenotypic signature: 54 COX-modulators, three independent experiments, normalized to untreated control. On the procedure: 54 pain-killers were tested in three independent experiments. […] The results were normalized to the untreated control group. Image-based assay read outs: a) “Active”, ratio of cells presenting mounted inflammasome, b) “TNFaPosRate”, ratio of cells showing intracellular TNFalpha expression, c) “TNFa specs/cell”, number of TNFalpha spots within TNFalpha positive cells, d) “Cells”, total number of cells. Homogenous assay read outs: e) “TNFa see”, TNFalpha concentration in the supernatant in ng/ml, f) “IL1b”, IL1beta concentration in the supernatant in ng/ml.
54 compounds were tested, which are known as cyclooxygenase (COX)-Modulators. Most of the compounds were already on market or in drug development process. A unique collective phenotypic signature of this drug class was identified. There was no alteration of assay parameters, meaning that common Cox-modulators should have no effect on the innate immune response in the test system provided by the present invention. […] Bufexamac was withdrawn from market 2010 due to allergic reaction and was further proposed in 2017 as co-treatment agent (TNFa binder) for modulators of TNFa synthesis. […] Xanthohumol, a chalcone isolated from Humulus lupus, is currently in clinical trial phase 1. Currently, there is no information about induced adverse effects.
The adverse effects of all three compounds were not identified during the safety/toxicity assessment in preclinical lead optimization or in clinical trials. Current safety testing during preclinical drug development was not able to detect the adverse modulation of innate immune response.

In the case of `Clc1cccc(-c2nnnn2Cc2cccnc2)c1Cl` [A-438079], in experiment [1], the TNFa-positive cells percentage entry is recorded as “no impact” and the IL1beta release result is recorded as “block”. Also, in experiment [1] (image-based), the inflammasome activation result is listed as “complete block” and the “percentage of IL1beta-positive cells” value is reported as “marked increase”. The “IL1b release (Luminex)” value in experiment [2] is on record as “block”.

Turning to `CCCCOc1ccc(CC(=O)NO)cc1` [Bufexamac], in experiment [3], the TNFa binder effect result is recorded as “effect was proofed” and the “alteration of the collective phenotypic signature” value (“alteration” below) is “show alteration of the collective phenotypic signature”.

`CC(C)(O)c1coc(S(=O)(=O)NC(=O)Nc2c3c(cc4c2CCC4)CCC3)c1` [CRID3, CRID3/MCC950]: in experiment [1] (image-based), the inflammasome activation entry was “complete block” and the “percentage of IL1beta-positive cells” value is listed as “marked increase”. The IL1beta release result in experiment [1] is listed as “complete block”. The “IL1b release (Luminex)” value in experiment [2] is “block”.

For `COCCOc1nc(-c2ccc(Cl)c(Cl)c2)n(-c2ccc(NC(=O)CCl)cc2)n1` [MI-2], in experiment [1], the TNFa-positive cells percentage entry is recorded as “not affected” and the IL1beta release result was “complete block”. In experiment [1] (image-based), the inflammasome activation result is reported as “complete block”, the “percentage of IL1beta-positive cells” value is “marked increase” and the “percentage of TNFa-multispot-positive cells” value is reported as “robust increase”. In addition, in experiment [1] (present assay), the TNFa release result was “partial block”. Further, in experiment [2], the “TNFa release (Luminex)” value was “partial block of TNFa release with limited resolution” and the “IL1b release (Luminex)” value was “block”.

Turning to `CC(C(=O)O)c1ccc(C(=O)c2cccs2)cc1` (centres unmarked) [Subrofen], the “alteration” value in experiment [3] was “show alteration of the collective phenotypic signature”. Further, in experiment [3] (supernatant), the “cytokine release (II. 1b)” value is on record as “strong decrease”.

For the compound `COc1cc(O)c(CC=C(C)C)c(O)c1C(=O)/C=C/c1ccc(O)cc1` [Xanthohumol], in experiment [3], the “alteration” value is “show alteration of the collective phenotypic signature”.

As to Z-VAD-OH-FMK, in experiment [1] (image-based), the inflammasome activation result is reported as “did not show any effect” and the “percentage of IL1beta-positive cells” value is recorded as “low percentage”. Further, the IL1beta release result in experiment [1] is “block”. The “IL1b release (Luminex)” value in experiment [2] is given as “block”.
